The results in this text go back to article PMC11062899, “De novo development of small cyclic peptides that are orally bioavailable” (Nature Chemical Biology, 2023).

The nature of data set [1]: Metabolic stability in rat liver microsomes (RLMs). As to conditions: rat, microsomes.
In data set [2] the target is human α-thrombin (Homo sapiens, UniProt P00734). The experiment in a line: Screen of 8,448-member cyclic peptide library against thrombin (crude reactions, 10 μM). Type of data set: biochemical. Particulars: 10 μM crude peptide, slopes normalized to DMSO; for Residual thrombin activity: Replica: repeated acylation and screen. As for the experimental part:
The cyclic peptides were N-acylated with activated carboxylic acids as follows. Volumes of 25 nl of cyclic peptides and 25 nl of activated carboxylic acids were transferred in a combinatorial fashion to 384-well microplates (Greiner, 781076) using an Echo 650 acoustic liquid handler (Labcyte). Plates were centrifuged at 2,000g for 2 min and incubated at room temperature for 8 h. […] The reaction products were screened for thrombin inhibition as follows. […] Thrombin inhibition was determined by measuring the fluorescent gain over time. Fluorescence intensity was measured on a Tecan Infinite […] microplate reader for 30 min at 25 °C with a fluorescent readout every 3 min (excitation: 360 nm, emission: 465 nm). Protease inhibition was calculated by comparing the enzymatic activity to a control without cyclic peptide. page 48: Supplementary Tables Supplementary Table 1 […] Cyclic peptide high-throughput screen. Category Parameter Description Assay Type of assay In vitro Target Human α thrombin Primary measurement Proteolytic cleavage of fluorogenic substrate Key reagents […] (Bachem) Assay protocol Described in Materials section “Thrombin library synthesis and screening” Additional comments - […] Library composition Cyclic peptides Source Combinatorial synthesis. Described in Methods section “Thrombin library synthesis and screening” Additional comments - Screen Format 384 well microtiter plates (Greiner, 781076) Concentration(s) tested 10 µM Plate controls 20 wells DMSO, 4 wells human α thrombin inhibitor R-11-25-2 (DOI: 10.1039/d0sc01944e) Reagent/ compound dispensing system Echo 650 (Beckman Coulter), […]) Detection instrument and software Tecan Infinite […] microplate reader Assay validation/QC Z' score: 0.86 Correction factors - Normalization Percent fluorescent gain over time as compared to DMSO Additional comments - […] Additional assay(s) Resynthesis and retesting of 20 best hits in original assay Confirmation of hit purity and structure Compounds were resynthesized and verified analytically Additional comments - 47

The mark [3] stands for this setting: CL (ul/min/mg protein) R1, RLM CL, replicate R1.
Where [4] appears, read: CL (ul/min/mg protein) R2, RLM CL, replicate R2.
The mark [5] stands for this setting: CL (ul/min/mg protein) R3, RLM CL, replicate R3.
Where [6] appears, read: Half Life (min) R1, RLM metabolic stability, replicate R1, 0-60 min.
[7] abbreviates: Half Life (min) R2, RLM metabolic stability, replicate R2, 0-60 min.
[8] abbreviates: Half Life (min) R3, RLM metabolic stability, replicate R3, 0-60 min.
Where [9] appears, read: Metabolic stability: RLM CL (ul/min/mg), RLMs, mean and SD, three measurements.
[10] abbreviates: Metabolic stability: RLM CL R1, summary table, rounded, replicate R1.
[11] abbreviates: Metabolic stability: RLM CL R2, summary table, rounded, replicate R2.
Where [12] appears, read: Metabolic stability: RLM CL R3, summary table, rounded, replicate R3.

`CN1CCC(=O)NCCSCCS(=O)(=O)CCSC[C@H](NC(=O)c2ccc(Cl)s2)C(=O)N[C@@H](Cc2ccccc2)C1=O` [compound 14]: the microsomal CLint worked out at 78.3 µL/min/mg in data set [1] (setting [3]); 132 µL/min/mg in data set [1] (setting [4]); 141 µL/min/mg in data set [1] (setting [5]); 117 ± 28 µL/min/mg in data set [1] (setting [9]); 78.3 µL/min/mg in data set [1] (setting [10]); 132 µL/min/mg in data set [1] (setting [11]). Besides, the microsomal CLint in data set [1] (setting [12]) was 141 µL/min/mg; in data set [1] (pH 7.4, Metabolic stability: RLM CL Average, summary table, average of R1-R3), 117 µL/min/mg. Besides, the half-life in data set [1] (setting [6]) came out at 17.7 min; in data set [1] (setting [7]), 10.5 min; in data set [1] (setting [8]) it was 9.82 min; in data set [1] (pH 7.4, Metabolic stability: Half life T1/2 (min), RLMs, mean and SD, three measurements) it was 12.7 ± 3.6 min. In addition, in data set [2], the “Residual thrombin activity: Screen” value is given as 29.3. The “Residual thrombin activity: Replica” value in data set [2] turned out to be 33.0.
With `O=C1C[C@H]2CCCN2C(=O)[C@H](Cc2ccccc2)NC(=O)[C@@H](NC(=O)c2ccc(Cl)s2)CSCCS(=O)(=O)CCSCCN1` [peptide 11], the microsomal CLint in data set [1] (setting [3]) was 92.9 µL/min/mg; in data set [1] (setting [4]) it was 68.2 µL/min/mg; in data set [1] (setting [5]) it was 83.9 µL/min/mg; in data set [1] (setting [9]) it was 82 ± 10 µL/min/mg; in data set [1] (Metabolic stability: RLM CL Average, summary table, average of R1-R3), 81.7 µL/min/mg; in data set [1] (setting [10]), 92.9 µL/min/mg. The microsomal CLint in data set [1] (setting [11]) came out at 68.2 µL/min/mg; in data set [1] (setting [12]), 83.9 µL/min/mg. For the same compound, the half-life in data set [1] (setting [6]) amounted to 14.9 min; in data set [1] (setting [7]) it was 20.3 min; in data set [1] (setting [8]), 16.5 min; in data set [1] (Metabolic stability: Half life T1/2 (min), RLMs, mean and SD, three measurements), 17.3 ± 2.3 min. The “Residual thrombin activity: Screen” value in data set [2] is reported as 3.1. Also, the “Residual thrombin activity: Replica” value in data set [2] came to 1.5.
